In patent US10175256B2, “Compositions and methods utilizing lysophosphatidylcholine scaffolds” (National University Of Singapore, priority 2013, dated 2019):
“And” between values parts separate entries of the source, which are not always exact repeats. Equal entries are not always repeated.

Columns and labels:
mouse Mfsd2a [1] = experiment: Cell-based free fatty acid transport/uptake in Mfsd2a expressing HEK293 cells (mass spectrometry, TLC; Table 1); details: mock HEK293 cells
Summary of the method: (§1)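 HEK293 cells expressing mouse Mfsd2a, or mock controls, were incubated overnight with 100 μM BSA-complexed fatty acids. Lipids were extracted in hexane:isopropanol (3:2) and phospholipid species quantified by HPLC-MS/MS against spiked internal standards. For TLC, cells received 100 μM [^14C]-oleate overnight, and phospholipids and neutral lipids were resolved.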

mouse Mfsd2a [2] = target: T1, mouse Mfsd2a (Mus musculus, UniProt Q9DA75); experiment: as above; details: for % DHA in PC + lysoPC / % DHA in PE + lysoPE / % DHA in PI and lysoPI / % DHA in PS: Mfsd2a expressing HEK293 cells
T1 construct: expressed in transfected cells; host or cells: HEK293
T1 sequence (Q9DA75 1-534): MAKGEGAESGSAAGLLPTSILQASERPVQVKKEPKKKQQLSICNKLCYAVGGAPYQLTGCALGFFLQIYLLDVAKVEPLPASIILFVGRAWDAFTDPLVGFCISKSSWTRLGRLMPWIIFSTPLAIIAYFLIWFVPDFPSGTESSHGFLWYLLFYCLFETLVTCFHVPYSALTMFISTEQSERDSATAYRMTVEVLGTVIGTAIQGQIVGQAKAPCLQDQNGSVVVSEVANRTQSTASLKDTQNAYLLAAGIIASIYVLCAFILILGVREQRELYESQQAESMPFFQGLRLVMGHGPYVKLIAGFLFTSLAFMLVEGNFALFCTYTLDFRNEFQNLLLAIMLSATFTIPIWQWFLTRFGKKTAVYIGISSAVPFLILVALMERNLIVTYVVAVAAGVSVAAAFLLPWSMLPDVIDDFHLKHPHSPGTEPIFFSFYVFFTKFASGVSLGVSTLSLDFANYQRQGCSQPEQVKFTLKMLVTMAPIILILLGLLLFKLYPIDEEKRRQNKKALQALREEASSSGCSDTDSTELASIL
Summary of the method: as §1

Mfsd2a [3] = target: T2, Mfsd2a (Mus musculus, UniProt Q9DA75); experiment: In vivo transport of radiolabeled, fluorescent LPCs and unesterified DHA in Mfsd2a KO and wild-type mice; parameters: from tissue; host or cells: living mice; brain (blood-brain barrier endothelium), liver, heart; fetal brain
T2 sequence (Q9DA75 1-534): T1 sequence (Q9DA75 1-534)
Experimental: Male and female mice of age of 6-8 weeks were IV injected with 75 μl of 20 mM radiolabeled LPC-[…], 100 μl of 10 mM LPC-[^14C]DHA/BSA complex or 82 μl of 12.2 mM [^14C]DHA/BSA complex in a total volume of 150 μl of phosphate-buffered saline. At 2 hours post injection, mice were anesthetized and perfused for 5 mins with PBS containing 0.5% BSA in order to remove blood and lipid tracer bound to the brain vasculature. Tissues were harvested for lipid extraction. For lipid extraction, tissues were weighed and similar amounts of tissues were homogenized in chloroform/methanol. Lipids from the organic phase were mixed with scintillant and scintillation counted. Similar experiments were also performed with an injection of 300 μg NBD-LPC/BSA or 300 μg TopFluor-LPC/BSA complex per mouse. In this experiment, mice were perfused for 5 mins with PBS followed 15 mins perfusion with 4% paraformaldehyde (PFA) for tissue fixation. Brain sections of WT and KO with a thickness of 40 μm were prepared and scanned using green fluorescence mode in Typhoon FLA 9000 scanner (Agilent). NBD-LPC accumulation was expressed as fluorescence of each section per its area. Dietary DHA transport from mother to fetus was also measured using [^14C]DHA/BSA complex. Pregnant females at e18.5 was gavaged with bolus of [^14C]DHA/BSA complex (200 μl of 10 mM [^14C]DHA/BSA/mouse). Brain of fetuses were collected 20 hours post-gavage and weighed. Lipid extraction and radioactivity were performed as described above.

Mfsd2a [4] = target: T2, Mfsd2a; experiment: Dietary DHA transport from mother to fetus (fetal brain uptake); type: in vivo, mice; parameters: from tissue; host or cells: living mice; brain (blood-brain barrier endothelium), liver, heart; fetal brain
Experimental: FIG. 21. […] Heterozygous female mice were gavaged with 100 ul DHA oil (containing 26% DHA triglyceride and 6% EPA, total omega-3 is 35%) every 2 days for 2 weeks prior to conception in crosses with KO males. […] The rationale for using HET and KO intercrosses was to increase the yield of KO mice in this rescue study. During gestation, pregnant mice were continued on gavages of DHA every 2 days. Gavages of mothers continued during breastfeeding and pups were weaned onto normal diet at 3 weeks of age and gavaged every 2 days with DHA for 8 weeks. a, brain weight of adult WT (n=4) and KO (n=4) mice aged 8 weeks after treatment with dietary DHA oil. […] To test this possibility, pregnant het mothers intercrossed to KO fathers at e17.5-e19.5, were gavaged with [^14C]DHA and uptake into fetal brains were quantified. […] Data are expressed as mean±SEM. *P<0.05. ***P<0.001.
Male and female mice of age of 6-8 weeks were IV injected with 75 μl of 20 mM radiolabeled LPC-[…], 100 μl of 10 mM LPC-[^14C]DHA/BSA complex or 82 μl of 12.2 mM [^14C]DHA/BSA complex in a total volume of 150 μl of phosphate-buffered saline. […] Lipids from the organic phase were mixed with scintillant and scintillation counted. […] Brain sections of WT and KO with a thickness of 40 μm were prepared and scanned using green fluorescence mode in Typhoon FLA 9000 scanner (Agilent). […]

[5] = 100 uM Arachidonic fatty acid/BSA overnight
[6] = 100 uM Eicosapentaenoic fatty acid/BSA overnight
[7] = 100 uM Docosahexaenoic acid/BSA overnight
[8] = 100 uM Eicosapentaenoic acid/BSA overnight
[9] = 100 uM Linoleic fatty acid/BSA overnight
[10] = 100 uM Oleic fatty acid/BSA overnight
[11] = 100 uM Alpha-linolenic fatty acid/BSA overnight, replicate columns

- transport of unesterified fatty acid by Mfsd2a (mouse Mfsd2a [2]; HEK293 cells, 100 μM fatty acid/BSA overnight): did not transport
- % DHA in PE + lysoPE (mouse Mfsd2a [2]; [5]): 7.284% and 8.765% and 7.721% and 8.735%
- % DHA in PE + lysoPE (mouse Mfsd2a [2]; [6]): 18.3299% and 16.89% and 16.6% and 16.53%
- % DHA in PE + lysoPE (mouse Mfsd2a [2]; [7]): 26.88% and 25.05% and 25.61% and 24.93%
- % DHA in PE + lysoPE (mouse Mfsd2a [2]; [10]): 10.39% and 10.24% and 9.206% and 11.33%
- brain uptake in KO mice relative to wild-type (Mfsd2a [3]; i.v. injection, 2 hrs post-injection, radiolabel): not reduced
- brain uptake, unesterified DHA compared with LPC-DHA (Mfsd2a [3]; wild-type brain, same amount injected i.v., 2 hrs): significantly lower
- brain uptake by KO embryos compared to wild-type embryos (Mfsd2a [4]; e18.5, maternal gavage): dramatically reduced
- reduction in fetal brain uptake, KO relative to het (Mfsd2a [4]; pregnant het mothers gavaged at e17.5-e19.5): 80%
Structure (SMILES): CCC=CCC=CCC=CCC=CCC=CCC=CCC[14C](=O)O [[^14C]DHA, [1-^14C]docosahexaenoic acid, reference compound]
- % DHA in PC + lysoPC (mouse Mfsd2a [1]; [5]): 0.09113% and 0.09288% and 0.09495%
- % DHA in PE + lysoPE (mouse Mfsd2a [1]; [5]): 8.696% and 8.987% and 7.919%
- % DHA in PI and lysoPI (mouse Mfsd2a [1]; [5]): 0.01273% and 0.01321% and 0.01121%
- % DHA in PE + lysoPE (mouse Mfsd2a [1]; [6]): 15.99% and 18.52% and 17.73%
- % DHA in PI and lysoPI (mouse Mfsd2a [1]; [6]): 0.03815% and 0.04977% and 0.04803%
- % DHA in PS (mouse Mfsd2a [1]; [6]): 0.1841% and 0.2258% and 0.1957%
- % DHA in PC + lysoPC (mouse Mfsd2a [1]; [7]): 0.4237% and 0.3234% and 0.432%
- % DHA in PE + lysoPE (mouse Mfsd2a [1]; [7]): 26.43% and 26.89% and 27.48%
- % DHA in PI and lysoPI (mouse Mfsd2a [1]; [7]): 0.204% and 0.2547% and 0.2244%
- % DHA in PS (mouse Mfsd2a [1]; [7]): 0.5491% and 0.6402% and 0.653%
- % DHA in PC + lysoPC (mouse Mfsd2a [1]; [8]): 0.1385% and 0.1469% and 0.1528%
- % DHA in PE + lysoPE (mouse Mfsd2a [1]; [9]): 9.697% and 10.5% and 10.2%
- % DHA in PI and lysoPI (mouse Mfsd2a [1]; [9]): 0.01565% and 0.01716% and 0.01581%
- % DHA in PS (mouse Mfsd2a [1]; [9]): 0.1596% and 0.1455% and 0.1427%
- % DHA in PC + lysoPC (mouse Mfsd2a [1]; [10]): 0.04427% and 0.04402% and 0.04911%
- % DHA in PE + lysoPE (mouse Mfsd2a [1]; [10]): 10.41% and 11.83% and 10.1%
- % DHA in PI and lysoPI (mouse Mfsd2a [1]; [10]): 0.01286% and 0.01294% and 0.01231%
- % DHA in PC + lysoPC (mouse Mfsd2a [2]; [11]): 0.2353% and 0.2194% and 0.2422% and 0.2191%
- % DHA in PE + lysoPE (mouse Mfsd2a [2]; [11]): 13.49% and 15.19% and 13.82% and 14.8475%
- % DHA in PI and lysoPI (mouse Mfsd2a [2]; [11]): 0.05995% and 0.06331% and 0.07073% and 0.06627%
- % DHA in PS (mouse Mfsd2a [2]; [11]): 0.1602% and 0.1425% and 0.1723% and 0.1454%
- % DHA in PC + lysoPC (mouse Mfsd2a [2]; [5]): 0.08166% and 0.07964% and 0.09753% and 0.09194%
- % DHA in PI and lysoPI (mouse Mfsd2a [2]; [5]): 0.01388% and 0.01389% and 0.0161% and 0.01507%
- % DHA in PS (mouse Mfsd2a [2]; 100 uM Arachidonic fatty acid/BSA overnight, replicate columns): 0.1231% and 0.1085% and 0.1181% and 0.1151%
- % DHA in PI and lysoPI (mouse Mfsd2a [2]; [6]): 0.048% and 0.05677% and 0.0498% and 0.05152%
- % DHA in PS (mouse Mfsd2a [2]; [6]): 0.2062% and 0.2182% and 0.1861% and 0.2178%
- % DHA in PC + lysoPC (mouse Mfsd2a [2]; 100 uM Linoleic fatty acid/BSA overnight, replicate columns): 0.06735% and 0.06556% and 0.06667% and 0.06486%
- % DHA in PC + lysoPC (mouse Mfsd2a [2]; [7]): 0.4167% and 0.3839% and 0.3923% and 0.3416%
- % DHA in PI and lysoPI (mouse Mfsd2a [2]; [7]): 0.2363% and 0.1967% and 0.2348% and 0.1831%
- % DHA in PS (mouse Mfsd2a [2]; [7]): 0.4937% and 0.5293% and 0.485% and 0.4533%
- % DHA in PC + lysoPC (mouse Mfsd2a [2]; [8]): 0.1577% and 0.1414% and 0.143% and 0.141%
- % DHA in PE + lysoPE (mouse Mfsd2a [2]; [9]): 10.0396% and 9.979% and 10.14% and 10.29%
- % DHA in PI and lysoPI (mouse Mfsd2a [2]; [9]): 0.01746% and 0.01513% and 0.01522% and 0.01521%
- % DHA in PS (mouse Mfsd2a [2]; [9]): 0.1229% and 0.1239% and 0.1343% and 0.1145%
- % DHA in PC + lysoPC (mouse Mfsd2a [2]; [10]): 0.04304% and 0.04054% and 0.04274% and 0.04139%
- % DHA in PI and lysoPI (mouse Mfsd2a [2]; [10]): 0.01405% and 0.01452% and 0.01424% and 0.01275%
